Counter-ions that a name gives are not always drawn.
Key:
[1] = test system: small intestine lamina propria lymphocytes; experiment: EL-PAT: flow cytometry of small intestine lamina propria lymphocytes; type: in vivo, C57BL/6 mice; conditions: 7-week old; for small intestine CD4+ IL-17A+ (IL-17A expression): males, vs control
Procedure: For the experiments, dams and their litters were divided into control and antibiotic groups. In the EL-PAT study dams in the antibiotic groups received Tylosin tartrate (Sigma Aldrich, St. Louis Mo.) dissolved in distilled deionized water (neutral pH) at a concentration of 0.33 mg/ml, and dams in the control group received non-acidified water. Mice in the PAT3 group received two additional doses of antibiotics at day 27 and 36 of life for 3 days. In some experiments, C57BL/6 mice were exposed to one, PAT1, (n=17, M=9, F=8) or three, PAT3, (n=19, M=10, F=9) doses of the macrolide Tylosin in non-acidified water or non-acidified water alone (control, n=12, M=9, F=3), early-in-life, to mirror pediatric antibiotic exposures. For the first antibiotic pulse […] of Tylosin tartrate (Sigma) was dissolved in 250 ml of non-acidified water and given to PAT1 and PAT3 lactating dams at pup day 5 of life for 5 days. For the second and third pulse, pups received the antibiotic directly at day 27 and day 36 of life respectively, for three days. Mice were sacrificed at 7 weeks of age and fecal, ileal and cecal contents were collected. Throughout the experiment mouse weight and fecal contents were collected. After euthanasia of the mice by CO2 asphyxiation, small intestines were excised and placed in cold calcium and magnesium-free HBSS supplemented with HEPES-Bicarbonate and 5% FBS (CMF). Peyer's patches were removed and the intestine was opened longitudinally along its entire length. Intestinal contents were removed by washing thoroughly with cold CMF and treated with 1 mM DTT to remove contaminating intra-epithelial lymphocytes. Subsequently, the intestinal tissue was treated twice with 1.3 mM EDTA to remove epithelial cells. To isolate lamina propria lymphocytes, intestinal tissue was cut laterally into ˜0.5 cm pieces and digested in collagenase IV digestion mix (0.5 mg/ml of collagenase IV, 200 ug/ml of DNase 1 suspended in RPMI supplemented with 10% FBS and HEPES for 1 hour. For each digestion procedure, samples were incubated at 37° C. with vigorous shaking After each treatment, cell isolates were filtered through 100 μm diameter nylon mesh (BD Bioscience). For further purification of leukocytes, intestinal cell suspensions were subjected to a 44% /67% discontinuous Percoll (GE Healthcare Life Sciences) gradient. Cells were spun at 2,200 rpm for 20 minutes and collected at the 44% /67% Percoll interface. Viable cells were carefully removed from the interface, washed, and suspended in RPMI complete media. […] All cells were acquired on a LSRII (BD Bioscience) and analyzed using FlowJo software (version 9.3.2; Tree Star Inc.). […]

terminal ileum = experiment: NOD: ileal gene expression profiling by microarray; type: in vivo, NOD mice; conditions: for differentially regulated genes that were down: PAT vs Control
Procedure: Ileal gene expression profiling of 6-week control, STAT, and PAT animal groups, was performed using the Affymetrix Genechip system (Affymetrix, Santa Clara Calif.). Total RNA quality and quantity were determined using the Nanodrop ND-1000, agarose gel, and Agilent 2100 Bioanalyser. Total RNA (100 ng) was used to prepare cDNA following the Affymetrix 3′IVT Express Kit labeling protocol (Affymetrix). Standardized array processing procedures recommended by Affymetrix were performed, including hybridization, fluidics processing and scanning of the Affymetrix Mouse Genome 430 2.0 Array chips. The affy package in R was used to normalize the raw data (Affymetrix CEL files) by Robust Multichip Average (RMA) algorithm. Then the limma package was used to identify regulated genes between groups and generate lists of differentially expressed genes using linear models and empirical Bayes method with an FDR-adjusted p-value cut-off of p<0.05 (Smyth, 2004, Statistical Applications in Genetics and Molecular Biology 3, No. 1, Article 3).
RNA was extracted from the terminal ileum of the 6-week old NOD mice. Raw probe intensities were normalized by the Robust Multichip Average (RMA) algorithm using affy package in R and then the limma package was used to identify regulated genes using linear models and empirical Bayes method with an FDR-adjusted p-value cut off of p<0.05 (Smyth 2004, Statistical Applications in Genetics and Molecular Biology 3, No. 1, Article 3.).

[2] = terminal ileum, NOD male mice, microarray
[3] = terminal ileum, NOD male mice, microarray, probe with greatest fold change

CC[C@H]1OC(=O)C[C@@H](O)[C@H](C)[C@@H](O[C@@H]2O[C@H](C)[C@@H](O[C@H]3C[C@@](C)(O)[C@@H](O)[C@H](C)O3)[C@H](N(C)C)[C@H]2O)[C@@H](CC=O)C[C@@H](C)C(=O)/C=C/C(C)=C/[C@@H]1CO[C@@H]1O[C@H](C)[C@@H](O)[C@@H](OC)[C@H]1OC [Tylosin, Tylosin tartrate]
intestinal CD4+ IL-17A+ populations ([1]; females, three antibiotic doses, p<0.01): significantly decreased
CD4− IL-17A+ populations ([1]; females, three therapeutic doses, p<0.05): decreased
small intestine CD4+ IL-17A+ (IL-17A expression) ([1]; one therapeutic dose): significantly decreased
small intestine CD4+ IL-17A+ (IL-17A expression) ([1]; three therapeutic doses): significantly decreased
differentially regulated genes that were down (terminal ileum; NOD females): 42.1%
differentially regulated genes that were down (terminal ileum; NOD males): 69.3%
log2 fold change (PAT/control), Arl5b (terminal ileum; [2]): 2.42
log2 fold change (PAT/control), Bhmt (terminal ileum; [2]): −1.52
log2 fold change (PAT/control), Ccl20 (terminal ileum; [2]): −0.86
log2 fold change (PAT/control), Clec2d (terminal ileum; [2]): −0.65
log2 fold change (PAT/control), Dio1 (terminal ileum; [2]): −1.34
log2 fold change (PAT/control), Dusp14 (terminal ileum; [2]): 2.22
log2 fold change (PAT/control), Edn2 (terminal ileum; [2]): −1.67
log2 fold change (PAT/control), Ereg (terminal ileum; [2]): 1.73
log2 fold change (PAT/control), G6pc (terminal ileum; [2]): −2.85
log2 fold change (PAT/control), Gjb3 (terminal ileum; [2]): 0.77
log2 fold change (PAT/control), Gzma (terminal ileum; [2]): −1.48
log2 fold change (PAT/control), Il1rn (terminal ileum; [2]): 1.70
log2 fold change (PAT/control), Il17rd (terminal ileum; [2]): −0.58
log2 fold change (PAT/control), Irf1 (terminal ileum; [2]): −1.14
log2 fold change (PAT/control), Maff (terminal ileum; [2]): 2.22
log2 fold change (PAT/control), Phlda1 (terminal ileum; [2]): 1.96
log2 fold change (PAT/control), S100a14 (terminal ileum; [2]): 1.00
log2 fold change (PAT/control), Saa1 (terminal ileum; [2]): −4.00
log2 fold change (PAT/control), Saa2 (terminal ileum; [2]): −1.44
log2 fold change (PAT/control), Tifa (terminal ileum; [2]): −1.32
log2 fold change (PAT/control), Tppp (terminal ileum; [2]): −1.35
log2 fold change (PAT/control), Acsl3 (terminal ileum; [3]): 1.59
log2 fold change (PAT/control), Ccl28 (terminal ileum; [3]): −0.64
log2 fold change (PAT/control), Cd38 (terminal ileum; [3]): −1.02
log2 fold change (PAT/control), Chka (terminal ileum; [3]): 1.97
log2 fold change (PAT/control), Flrt3 (terminal ileum; [3]): 2.56
log2 fold change (PAT/control), Il1rl1 (terminal ileum; [3]): 1.64
log2 fold change (PAT/control), Klf4 (terminal ileum; [3]): 0.86
log2 fold change (PAT/control), Slc2a1 (terminal ileum; [3]): 1.26
log2 fold change (PAT/control), Socs2 (terminal ileum; [3]): −0.77
log2 fold change (PAT/control), Tnfrsf12a (terminal ileum; [3]): 1.72
log2 fold change (PAT/control), Tnfsf10 (terminal ileum; [3]): −1.46
log2 fold change (PAT/control), Zfand2a (terminal ileum; [3]): 2.11
log2 fold change (PAT/control), Rab30 (terminal ileum; terminal ileum, PAT-treated NOD male mice, 6-week, microarray): 4.27
log2 fold change (PAT/control), Areg (terminal ileum; terminal ileum, PAT-treated NOD male mice, microarray): 3.94

From patent US20160120915A1, “METHODS FOR MANIPULATING IMMUNE RESPONSES BY ALTERING MICROBIOTA” (NEW YORK UNIVERSITY, priority 2013, published 2016)
